# Reference: patent publication US10780074B2, “Compounds and uses thereof” (Sunovion Pharmaceuticals Inc., priority 2017, dated 2020)
# Where a name gives a salt, the structure may show the parent alone. Read-outs that look alike come from different tables or passages of the source.
# System: behaviors of compound-treated mice
# Assay: Neuropharmacological Assay (SmartCube)
# Type: in vivo
# Conditions: for minimal effective dose: Mus musculus, ip, 0.25 h, dose having 50% or more total activity in SmartCube, read-out: MED (minimal effective dose)
# Description: Neuropharmacological Assay (SmartCube™)
# Neurosci. 2011 Sep. 9; 5:103 (doi: 10.3389/fnins.2011.00103) (“Roberds”). As reported in Roberds, because psychiatric diseases generally result from disorders of cell-cell communication or circuitry, intact systems are useful in detecting improvement in disease-relevant endpoints. These endpoints are typically behavioral in nature, often requiring human observation and interpretation. To facilitate testing of multiple compounds for behavioral effects relevant to psychiatric disease, PsychoGenics, Inc. (Tarrytown, N.Y., “PGI”) developed SmartCube™, an automated system in which behaviors of compound-treated mice are captured by digital video and analyzed with computer algorithms. (D. Brunner et al., Drug Discov. Today 2002, 7:S107-S112). PGI Analytical Systems uses data from SmartCube™ to compare the behavioral signature of a test compound to a database of behavioral signatures obtained using a large set of diverse reference compounds. (The composition of the database as well as validation of the method is further described in Roberds). In this way, the neuropharmacological effects of a test compound can be predicted by similarity to major classes of compounds, such as antipsychotics, anxiolytics and antidepressants.
# The SmartCube™ system produces an activity signature indicating the probability that the activity of the test compound at the administered dose matches a given class of neuropharmacological agents. (See, e.g., Roberds, FIGS. 2 and 3). The test compound is simultaneously compared against multiple classes of agents; thus, a separate probability is generated for each behavioral effect measured (e.g., anxiolytic activity, analgesic activity, etc.). In the table below, these probabilities are reported for each behavioral effect measured as follows:
# Provided compounds were dissolved in a mixture of Pharmasolve™ (N-methyl-2-pyrrolidone), polyethylene glycol and propylene glycol, and were injected i.p. 15 min. before the behavioral test. For each compound, injections were administered at 3 different doses. For each behavioral effect measured, results for the most efficacious dose(s) are presented. In the table below, DP: anti-depressant; AX: anxiolytic; SD: sedative hypnotic; PS: anti-psychotic; MS: mood stabilizer; AD: ADHD; CE: cognitive enhancer; AG: analgesic; UN: uncharacterized CNS activity.
# The potency of many of the compounds in the table was also determined in the SmartCube™ system. Test compounds were routinely examined at dose levels of 0.3, 1, 3 10 and 30 mg per kg (mpk), although the dose range was increased or decreased if necessary to obtain a full dose response curve. A compound's minimal effective dose (MED) is a measure of the compounds potency. The MED was defined as the dose (in mpk) having 50% or more total activity in SmartCube.
# [1] = i.p. 15 min before behavioral test, most efficacious dose(s) of 3 doses
# [2] = SmartCube, i.p. 15 min before test, most efficacious dose(s)
SMILES,minimal effective dose (i.p.) [mg/kg],AD: ADHD (probability that activity matches class) [1],AG: analgesic (probability that activity matches class) [1],AX: anxiolytic (probability that activity matches class) [1],CE: cognitive enhancer (probability that activity matches class) [1],DP: anti-depressant (probability that activity matches class) [1],MS: mood stabilizer (probability that activity matches class) [1],PS: anti-psychotic (probability that activity matches class) [1],SD: sedative hypnotic (probability that activity matches class) [1],UN: uncharacterized CNS activity (probability that activity matches class) [1],minimal effective dose [mg/kg],AD: ADHD (probability that activity matches class) [2],AG: analgesic (probability that activity matches class) [2],AX: anxiolytic (probability that activity matches class) [2],CE: cognitive enhancer (probability that activity matches class) [2],DP: anti-depressant (probability that activity matches class) [2],MS: mood stabilizer (probability that activity matches class) [2],PS: anti-psychotic (probability that activity matches class) [2],SD: sedative hypnotic (probability that activity matches class) [2],UN: uncharacterized CNS activity (probability that activity matches class) [2]
"CNC[C@H]1OCCc2c(-c3ccnnc3)cccc21 (single isomer, unassigned) [Compound 77, hydrochloride salt]",≤ 3,+ (LOQ ≤ + <5%),+ (LOQ ≤ + <5%),++ (5% ≤ ++ <25%),+ (LOQ ≤ + <5%),++++ (50% ≤ ++++),+ (LOQ ≤ + <5%),+ (LOQ ≤ + <5%),+ (LOQ ≤ + <5%),+ (LOQ ≤ + <5%),,,,,,,,,,
"CNC[C@H]1OCCc2c(-c3ccncn3)cccc21 (single isomer, unassigned) [Compound 73, hydrochloride salt]",3 to 10,+ (LOQ ≤ + <5%),+ (LOQ ≤ + <5%),++ (5% ≤ ++ <25%),+ (LOQ ≤ + <5%),++++ (50% ≤ ++++),+ (LOQ ≤ + <5%),+ (LOQ ≤ + <5%),+ (LOQ ≤ + <5%),+ (LOQ ≤ + <5%),,,,,,,,,,
"CNC[C@@H]1OCCc2c1cccc2-n1cccn1 [Compound 186, (R)-1-(5-(1H-pyrazol-1-yl)isochroman-1-yl)-N-methylmethanamine]",,,,,,,,,,,10 to 30,+ (LOQ ≤ + <5%),+ (LOQ ≤ + <5%),++ (5% ≤ ++ <25%),+ (LOQ ≤ + <5%),+ (LOQ ≤ + <5%),+ (LOQ ≤ + <5%),+ (LOQ ≤ + <5%),+ (LOQ ≤ + <5%),+ (LOQ ≤ + <5%)
"NC[C@@H]1OCCc2c(-c3cccnc3)cccc21 [Compound 15, (R)-(5-(Pyridin-3-yl)isochroman-1-yl)methanamine hydrochloride]",10 to 30,++ (5% ≤ ++ <25%),++ (5% ≤ ++ <25%),++ (5% ≤ ++ <25%),+ (LOQ ≤ + <5%),+++ (25% ≤ +++ <50%),++ (5% ≤ ++ <25%),++ (5% ≤ ++ <25%),+ (LOQ ≤ + <5%),+ (LOQ ≤ + <5%),,,,,,,,,,
"CNC[C@H]1OCCc2c(-c3cnco3)cccc21 (single isomer, unassigned) [Compound 97, hydrochloride salt]",≤ 3,+ (LOQ ≤ + <5%),++ (5% ≤ ++ <25%),++ (5% ≤ ++ <25%),+ (LOQ ≤ + <5%),++ (5% ≤ ++ <25%),+ (LOQ ≤ + <5%),++ (5% ≤ ++ <25%),++++ (50% ≤ ++++),++ (5% ≤ ++ <25%),,,,,,,,,,
"NC[C@@H]1OCCCc2c(-c3ccncn3)cccc21 (single isomer, unassigned) [Compound 166]",10 to 30,+ (LOQ ≤ + <5%),+ (LOQ ≤ + <5%),+ (LOQ ≤ + <5%),+ (LOQ ≤ + <5%),+ (LOQ ≤ + <5%),+ (LOQ ≤ + <5%),+ (LOQ ≤ + <5%),+ (LOQ ≤ + <5%),+ (LOQ ≤ + <5%),,,,,,,,,,
"NCC1OCCc2c(-c3ccnnc3)cccc21 (centres unmarked) [Compound 61, (5-(Pyridazin-4-yl)isochroman-1-yl)methanamine hydrochloride salt]",10 to 30,+ (LOQ ≤ + <5%),+ (LOQ ≤ + <5%),++ (5% ≤ ++ <25%),+ (LOQ ≤ + <5%),++ (5% ≤ ++ <25%),+ (LOQ ≤ + <5%),+ (LOQ ≤ + <5%),+ (LOQ ≤ + <5%),++++ (50% ≤ ++++),,,,,,,,,,
"CNC[C@@H]1OCCc2c(-c3cnoc3)cccc21 (single isomer, unassigned) [Compound 84, hydrochloride salt]",3 to 10,++ (5% ≤ ++ <25%),+ (LOQ ≤ + <5%),++ (5% ≤ ++ <25%),++ (5% ≤ ++ <25%),++ (5% ≤ ++ <25%),+ (LOQ ≤ + <5%),+ (LOQ ≤ + <5%),+ (LOQ ≤ + <5%),++ (5% ≤ ++ <25%),,,,,,,,,,
"NC[C@H]1OCCc2ccc(-c3ccncc3)cc21 [Compound 48, (S)-(7-(pyridin-4-yl)isochroman-1-yl)methanamine hydrochloride]",3 to 10,+ (LOQ ≤ + <5%),+ (LOQ ≤ + <5%),++ (5% ≤ ++ <25%),++ (5% ≤ ++ <25%),+ (LOQ ≤ + <5%),+ (LOQ ≤ + <5%),++ (5% ≤ ++ <25%),+++ (25% ≤ +++ <50%),+++ (25% ≤ +++ <50%),,,,,,,,,,
"Cc1cc(-c2cccc3c2CCO[C@H]3CN)ccn1 (single isomer, unassigned) [Compound 122, hydrochloride salt]",10 to 30,+ (LOQ ≤ + <5%),+ (LOQ ≤ + <5%),++ (5% ≤ ++ <25%),+ (LOQ ≤ + <5%),+ (LOQ ≤ + <5%),+ (LOQ ≤ + <5%),+ (LOQ ≤ + <5%),+ (LOQ ≤ + <5%),+ (LOQ ≤ + <5%),,,,,,,,,,
"CNC[C@@H]1OCCc2c(-c3ncccn3)cccc21 [Compound 24, (R)—N-Methyl-1-(5-(pyrimidin-2-yl)isochroman-1-yl)methanamine hydrochloride]",> 30,+ (LOQ ≤ + <5%),+ (LOQ ≤ + <5%),++ (5% ≤ ++ <25%),+ (LOQ ≤ + <5%),+ (LOQ ≤ + <5%),+ (LOQ ≤ + <5%),+ (LOQ ≤ + <5%),+ (LOQ ≤ + <5%),++ (5% ≤ ++ <25%),,,,,,,,,,
